The results in this text go back to BindingDB's records for doi:10.1021/acs.jmedchem.8b01602 (2018).

Broadly, the IC50 is the point on the concentration scale where inhibition reaches its midpoint.

The nature of test [1]: Inhibition of mouse GAT3 expressed in HEK293 cells assessed as reduction in [3H]GABA uptake preincubated for 25 mins followed by [3H]GABA addition and measured after 4 mins by liquid scintillation counting method.
Test [2] is described as follows: Inhibition of mouse GAT2 expressed in HEK293 cells assessed as reduction in [3H]GABA uptake preincubated for 25 mins followed by [3H]GABA addition and measured after 10 mins by liquid scintillation counting method.
Test [3] can be described thus: Non-competitive inhibition of human GAT1 expressed in COS cells assessed as reduction in [2H6]GABA uptake by measuring [2H6]GABA Kd(app) at 10 uM preincubated for 25 mins followed by [2H6]GABA addition and measured after 4 mins by liquid scintillation counting method (Rvb = 28.3 +/- 1.5 nM).
Test [4] in a line: Non-competitive inhibition of human GAT1 expressed in COS cells assessed as reduction in [2H6]GABA uptake by measuring [2H6]GABA Kd(app) at 1 uM preincubated for 25 mins followed by [2H6]GABA addition and measured after 4 mins by liquid scintillation counting method (Rvb = 28.3 +/- 1.5 nM).

For the molecule `O=C(O)[C@H]1CNC[C@@H](CCN/N=C/c2ccc(-c3ccc(C(F)(F)F)cc3Cl)o2)C1`, the IC50 came out at 58.9 µM in test [1] and 53.7 µM in test [2].
Turning to `O=C(O)[C@H]1CNC[C@@H](CN/N=C/c2ccc(-c3cccc4ccccc34)o2)C1`, the IC50 in test [1] is 33.1 µM. Moreover, the Kd in test [3] stood at 0.112 µM; in test [4], 0.056 µM.
For the molecule `O=C(O)[C@H]1CNC[C@@H](CCN/N=C/c2ccc(-c3ccc(Cl)cc3Cl)o2)C1`, the half-maximal inhibitory concentration (IC50) turned out to be 25.7 µM in test [1] and 53.7 µM in test [2].
Consider `O=C(O)[C@H]1CNC[C@@H](CN/N=C/c2ccc(-c3cc(C(F)(F)F)cc(C(F)(F)F)c3)o2)C1`, for which the Kd is 0.154 µM in test [3] and 0.058 µM in test [4].
